Experimental data taken from patent publication US20190369122A1, “METABOLIC DISORDERS” (priority 2016, published 2019).

Legend:
[1] = tested on: HEK293 cells; test: Signaling in HEK293 cells (immunoblot); format: cell-based, human
Description: (§1) Snap-frozen liver and harvested cells were lysed in buffer containing 50 mM Tris-HCl (pH 7.4), 150 mM NaCl, 1 mM EDTA, 1 mM Na3VO4, 20 mM NaF, 10 mM glycerophosphate, 1 mM PMSF, 10% glycerol, 1% Triton X-100 and protease inhibitor cocktail. For immunoprecipitation, the cell lysates were obtained in 0.3% CHAPS-containing lysis buffer, sonicated and centrifuged at 20,000 g for 15 min at 4° C., and the supernatant was incubated with 20 μl of anti-FLAG beads (Sigma) at 4° C. for 4 h under gentle agitation.
HEK293 cells (ATCC CRL-1573) were grown and maintained in high-glucose (4.5 g/l glucose) DMEM with 10% (v/v) FBS. […] 24 h after transfection (with plasmids or siRNA as indicated), HEK293 cells cultured in poly-L-lysine-coated 60 mm dishes were rinsed twice with DMEM without FBS and incubated in serum-free DMEM for 18 h. HEK293 cells were then washed once with EBSS and incubated in EBSS for 1 h.

[2] = tested on: HEK293 cells; test: Immunofluorescence of mTOR and LAMP2 in HEK293 cells; format: cell-based, human; details: amino acid-deprived HEK293; 100 μM for 1 h
Description: Cells were grown on poly-L-lysine (Sigma) coated 4 well chamber slides, fixed with 4% paraformaldehyde for 15 min at 37° C., then washed with glycine-PBS and permeablized with 0.3% Triton X-100 for 10 min. After blocking with 3% BSA in PBS, cells were stained for mTOR and LAMP2. Images were obtained by confocal microscope.

[3] = tested on: insulin signaling components; test: IRS and Akt in liver, muscle and WAT of CONVR mice; format: in vivo, mouse
Description: (§2) An intraperitoneal glucose tolerance test (using 1 g glucose per kg body weight) was then performed after a 4 h fast. Blood glucose levels were measured from tail blood using HemoCue201+analyzer (HemoCue, Angelholm, Sweden). Liver and plasma samples were collected after a 4 h fast. Mice were under isoflurane anesthesia and killed by cervical dislocation. Fresh liver was taken and snap-frozen in liquid nitrogen and stored at −80° C. until protein extraction.
as §1

[4] = Targeted measurements in portal and peripheral blood, first cohort; details: human portal vs peripheral blood
Source text: Two human cohorts were used in this study. The first cohort comprised five obese subjects with type 2 diabetes and ten BMI-matched subjects without type 2 diabetes who were undergoing laparoscopic Roux-and-Y gastric bypass surgery at the Slotervaart Hospital, Amsterdam, the Netherlands, see Table 2. Subjects were fasted overnight before the morning of the surgery, and a peripheral venous sample was taken just before the patient went into the operating room. Anthropometric measurements and a stool sample were also taken before surgery. During the surgery, a portal vein sample (vena puncture) was taken as previously described. Fasting glucose (by glucose meters, Roche Diagnostics), insulin (by an electrochemiluminescence immunoassay, Roche Modular System) and HbA1c (Menarini Diagnostic) were measured in the peripheral blood. All participants gave informed consent before the surgery and the protocol was approved by the Medical Ethical Committee of the Slotervaart Hospital, Amsterdam, the Netherlands.
The samples were then reconstituted with 5% HCl in n-butanol at 70° C. for 1 h, allowing n-butyl ester to be formed. […] Samples (5 μl) were injected onto a C18 BEH column (2.1×100 mm with 1.7 μm particles; Waters, Milford, Mass.) using a gradient consisting of water with 0.1% formic acid (A-phase) and acetonitrile with 0.1% formic acid (B-phase). […]

[5] = tested on: mTORC1-Rag heterodimer complex-p62; test: Immunoprecipitation of FLAG mTOR: p62/Rag GTPases/mTORC1 complex formation; format: cell-based, human; details: HEK293; 100 μM, absence of amino acids, 1 h
Description: as §1
HEK293 cells (ATCC CRL-1573) were grown and maintained in high-glucose (4.5 g/l glucose) DMEM with 10% (v/v) FBS. All HEK293 cell experiments were performed in serum-starved and amino acid-deprived conditions. 24 h after transfection (with plasmids or siRNA as indicated), HEK293 cells cultured in poly-L-lysine-coated 60 mm dishes were rinsed twice with DMEM without FBS and incubated in serum-free DMEM for 18 h. HEK293 cells were then washed once with EBSS and incubated in EBSS for 1 h.

[6] = tested on: IRS1; test: Ubiquitination of IRS1; format: cell-based; details: 6 h treatment
Description: Cells were lysed under denaturing condition with 100 μl buffer A containing 2% SDS, and the cell lysates were transferred to a 1.5-ml microcentrifuge tube. The tube was placed on a hot plate immediately at 95° C. for 10 min. The cell lysates were sonicated and 700 μl of buffer A without SDS was added. The samples were incubated at 4° C. for 30 min, followed by centrifugation (20,000 g, 20 min). The supernatant was incubated with 20 μl of anti-FLAG beads (Sigma) at 4° C. for 4 h under gentle agitation.

[7] = tested on: G6pase, Pepck, Srebp1c, Fasn, Irs1, Irs2; test: Hepatic gene expression in GF mice (real-time PCR); format: in vivo, mouse; details: 500 μg i.p. twice per day for 3 days
Description: as §2
Mouse liver was homogenized in RLT buffer with ([…] using TissueLyser (Qiagen, Hilden, Germany). RNA was isolated using the RNeasy Minikit (Qiagen) and reverse transcribed to synthesize cDNA using High Capacity cDNA Reverse Transcription Kit (Applied Biosystems, Foster City, Calif., USA) according to the manufacturer's protocol. Real-time PCR was performed using 1×SYBR Green Master Mix (Thermo Scientific, Waltham, Mass., USA) using the following primers.

O=C(O)CCc1cnc[nH]1 [imidazole propionate]
S6K1 phosphorylation ([1]; HEK293, 100 μM for 1 h): induced | basal activation of Akt ([1]; HEK293, 8 h pretreatment): increased | responsiveness of Akt S473 to insulin ([1]; HEK293, 8 h pretreatment): reduced | lowest concentration with p62 phosphorylation activation ([1]; HEK293, absence of amino acids): 10 nM | p62 phosphorylation ([1]; HEK293, absence of amino acids, 1 and 2 h): concentration- and time-dependent increase | Akt phosphorylation ([1]; HEK293, compared with amino acids): induced | time to mTORC1 activation ([1]; absence of amino acids): ≥ 30 min | IRS1 S636/S639 phosphorylation ([1]; amino acid-deprived HEK293, 2 h): induced | IRS1 levels ([1]; amino acid-deprived HEK293, 8 h): dramatically reduced | IRS1 protein levels ([1]; amino acid-deprived cells, up to 2 h): not reduced | time to S6K1 phosphorylation ([1]; presence of amino acids): ≤ 30 min | lysosomal localization of mTOR [2]: induced | basal Akt S473 phosphorylation in liver, muscle and WAT ([3]; 3-day injection vs vehicle): higher | IRS levels in liver, muscle or WAT ([3]; 3-day injections): did not reduce | metabolism inferred from similar portal and peripheral blood concentrations [4]: not metabolized | formation of the mTORC1-Rag heterodimer complex-p62 [5]: induced | ubiquitination of IRS1 [6]: promoted | hepatic Irs1 and Irs2 mRNA levels [7]: no significant changes | hepatic expression of Srebp1c and Fasn [7]: did not affect | hepatic expression of G6pase and Pepck ([7]; vs controls): significantly increased
